From patent US20120165310A1, “ETHER DERIVATIVES OF BICYCLIC HETEROARYLS” (NOVARTIS AG, priority 2009, published 2012)

Tests used:
IGF-1R = molecular target: T1, IGF-1R (Homo sapiens, UniProt P08069); assay: Cellular IGF-1R assay: capture ELISA (MSD) of receptor phosphorylation in Hek293 cells; format: cell-based; conditions: Hek293-IGF1R cells, 1 h pre-incubation, 10 min IGF stimulation, pIGF1R capture ELISA
T1 construct: expressed in transfected cells; host or cells: Hek293 (Hek293-IGF1R)
How it was run: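 IC50 from 4-parameter fit of IGF1R phosphorylation, normalised to IGF-stimulated and unstimulated controls, measured by MSD capture ELISA on lysates. Hek293-IGF1R cells in starvation medium got compound 1 h (top 10 μM, 3-fold steps, 0.1% DMSO) before a 10 min pulse of 1.0 ng/μL IGF.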

[1] = In vitro metabolic identification study with human liver microsomes; format: in vitro ADME; conditions: 1 hour incubation, parent 5 μM
Method: (§1) In vitro metabolic identification studies with, Example 2 and Example 3 with human and rat liver microsomes are summarized in the table below in which the compounds were incubated for 1 hour with rat or human liver microsome preparations.
(§2) The metabolism of unlabelled compound was examined following in vitro incubations with liver microsomes from rat and human. The samples were analyzed by capillary-HPLC/MS^(n) and screened for potential metabolites of the compound.

[2] = In vitro metabolic identification study with rat liver microsomes; format: in vitro ADME; conditions: for formation of the phenolic metabolite X / metabolic stability relative to ex.102 of WO02/092559: rat and human liver microsomes; for Relative peak area after incubation, Parent / Relative peak area after incubation, Phenol metabolite X: rat liver microsomes, 1 hour incubation, parent 5 μM
Method: as §1, §2

InsR = InsR (Homo sapiens, UniProt P06213); assay: Kinase activity test, parent compound vs phenol metabolite X; format: biochemical
C-Abl = C-Abl (Homo sapiens, UniProt P00519); assay: as above; format: biochemical
Text: (§3) In this tests, the parent compound, ex.102 of […] is compared with the corresponding phenol metabolite.

EphB4 = molecular target: T2, EphB4 (Homo sapiens, UniProt P54760); assay: as above; format: biochemical
T2 sequence (P54760 16-987): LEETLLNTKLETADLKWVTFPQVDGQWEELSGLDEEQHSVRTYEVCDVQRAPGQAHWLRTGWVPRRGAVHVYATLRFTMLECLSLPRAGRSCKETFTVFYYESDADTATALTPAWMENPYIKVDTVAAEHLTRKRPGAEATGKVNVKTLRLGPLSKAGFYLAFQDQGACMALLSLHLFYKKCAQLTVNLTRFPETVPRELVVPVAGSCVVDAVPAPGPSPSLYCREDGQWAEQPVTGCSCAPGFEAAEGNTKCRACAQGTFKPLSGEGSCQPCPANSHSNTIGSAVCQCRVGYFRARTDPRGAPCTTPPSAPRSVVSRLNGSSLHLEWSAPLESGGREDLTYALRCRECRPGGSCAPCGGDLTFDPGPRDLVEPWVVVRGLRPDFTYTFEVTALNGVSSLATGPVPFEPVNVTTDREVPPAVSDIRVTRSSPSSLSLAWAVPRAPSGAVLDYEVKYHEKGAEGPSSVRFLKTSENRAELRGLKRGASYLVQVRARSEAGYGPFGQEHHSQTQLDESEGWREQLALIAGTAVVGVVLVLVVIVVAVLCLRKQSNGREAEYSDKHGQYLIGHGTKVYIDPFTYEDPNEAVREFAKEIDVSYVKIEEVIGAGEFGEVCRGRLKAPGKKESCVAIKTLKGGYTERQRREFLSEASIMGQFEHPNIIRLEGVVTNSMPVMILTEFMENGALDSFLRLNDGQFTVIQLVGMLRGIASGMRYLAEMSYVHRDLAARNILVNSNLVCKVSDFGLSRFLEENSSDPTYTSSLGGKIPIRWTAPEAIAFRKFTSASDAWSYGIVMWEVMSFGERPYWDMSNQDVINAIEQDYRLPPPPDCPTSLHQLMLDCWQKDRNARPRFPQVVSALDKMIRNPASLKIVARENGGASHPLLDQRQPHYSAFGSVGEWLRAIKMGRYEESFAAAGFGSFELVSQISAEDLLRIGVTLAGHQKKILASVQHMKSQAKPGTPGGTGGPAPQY
Text: as §3

c-src = c-src (Homo sapiens, UniProt P12931); assay: as above; format: biochemical
Text: as §3

RET = RET (Homo sapiens, UniProt P07949); assay: as above; format: biochemical
Text: as §3

T1 sequence (P08069 31-1367): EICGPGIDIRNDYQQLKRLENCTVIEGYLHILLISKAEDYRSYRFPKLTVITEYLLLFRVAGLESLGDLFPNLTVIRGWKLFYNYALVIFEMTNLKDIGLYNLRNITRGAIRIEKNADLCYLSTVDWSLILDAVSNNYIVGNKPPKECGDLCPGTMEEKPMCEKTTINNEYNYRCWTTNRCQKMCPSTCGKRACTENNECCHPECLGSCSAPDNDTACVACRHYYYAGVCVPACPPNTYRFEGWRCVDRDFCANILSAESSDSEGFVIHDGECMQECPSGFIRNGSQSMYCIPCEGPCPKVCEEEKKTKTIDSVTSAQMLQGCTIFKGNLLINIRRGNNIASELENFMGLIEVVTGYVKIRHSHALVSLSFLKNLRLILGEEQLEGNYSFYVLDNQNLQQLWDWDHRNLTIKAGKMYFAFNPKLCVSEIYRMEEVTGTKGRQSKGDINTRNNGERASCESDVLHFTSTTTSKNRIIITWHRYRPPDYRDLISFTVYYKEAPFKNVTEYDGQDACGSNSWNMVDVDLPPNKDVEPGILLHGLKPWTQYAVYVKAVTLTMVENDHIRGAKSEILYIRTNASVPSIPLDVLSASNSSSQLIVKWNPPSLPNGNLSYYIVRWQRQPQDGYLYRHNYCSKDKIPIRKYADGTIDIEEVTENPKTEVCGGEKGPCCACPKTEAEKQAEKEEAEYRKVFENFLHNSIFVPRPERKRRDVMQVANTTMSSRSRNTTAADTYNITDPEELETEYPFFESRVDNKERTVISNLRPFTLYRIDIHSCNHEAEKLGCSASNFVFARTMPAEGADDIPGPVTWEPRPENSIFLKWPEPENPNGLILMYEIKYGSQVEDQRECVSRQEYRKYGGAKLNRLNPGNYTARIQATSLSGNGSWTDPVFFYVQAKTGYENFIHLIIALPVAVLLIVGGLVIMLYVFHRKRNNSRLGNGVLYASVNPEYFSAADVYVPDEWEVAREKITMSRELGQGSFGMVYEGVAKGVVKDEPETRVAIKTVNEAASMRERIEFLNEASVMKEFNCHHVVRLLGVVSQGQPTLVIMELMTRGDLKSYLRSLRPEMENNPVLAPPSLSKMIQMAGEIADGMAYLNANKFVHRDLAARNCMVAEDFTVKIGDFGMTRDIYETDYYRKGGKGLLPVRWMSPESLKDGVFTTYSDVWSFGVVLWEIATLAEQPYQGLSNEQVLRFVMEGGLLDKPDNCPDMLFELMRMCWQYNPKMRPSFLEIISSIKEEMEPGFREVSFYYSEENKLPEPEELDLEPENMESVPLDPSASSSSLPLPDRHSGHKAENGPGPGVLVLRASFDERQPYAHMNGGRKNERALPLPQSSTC
c-src, sequence (P12931 whole entry, species assumed): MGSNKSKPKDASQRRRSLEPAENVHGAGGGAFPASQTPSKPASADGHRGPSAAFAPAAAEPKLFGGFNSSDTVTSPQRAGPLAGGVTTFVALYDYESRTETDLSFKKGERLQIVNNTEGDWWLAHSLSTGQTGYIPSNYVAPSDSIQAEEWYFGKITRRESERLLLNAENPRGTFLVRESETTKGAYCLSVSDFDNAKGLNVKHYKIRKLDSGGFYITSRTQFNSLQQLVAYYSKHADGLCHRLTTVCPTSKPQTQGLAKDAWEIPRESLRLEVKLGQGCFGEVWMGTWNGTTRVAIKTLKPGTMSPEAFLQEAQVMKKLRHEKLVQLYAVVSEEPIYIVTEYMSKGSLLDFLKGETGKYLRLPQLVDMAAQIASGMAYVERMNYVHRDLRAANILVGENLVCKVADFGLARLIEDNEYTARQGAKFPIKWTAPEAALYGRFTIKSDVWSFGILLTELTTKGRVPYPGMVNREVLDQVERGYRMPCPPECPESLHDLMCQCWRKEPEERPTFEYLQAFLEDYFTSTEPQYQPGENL
RET, sequence (P07949 29-1114, species assumed): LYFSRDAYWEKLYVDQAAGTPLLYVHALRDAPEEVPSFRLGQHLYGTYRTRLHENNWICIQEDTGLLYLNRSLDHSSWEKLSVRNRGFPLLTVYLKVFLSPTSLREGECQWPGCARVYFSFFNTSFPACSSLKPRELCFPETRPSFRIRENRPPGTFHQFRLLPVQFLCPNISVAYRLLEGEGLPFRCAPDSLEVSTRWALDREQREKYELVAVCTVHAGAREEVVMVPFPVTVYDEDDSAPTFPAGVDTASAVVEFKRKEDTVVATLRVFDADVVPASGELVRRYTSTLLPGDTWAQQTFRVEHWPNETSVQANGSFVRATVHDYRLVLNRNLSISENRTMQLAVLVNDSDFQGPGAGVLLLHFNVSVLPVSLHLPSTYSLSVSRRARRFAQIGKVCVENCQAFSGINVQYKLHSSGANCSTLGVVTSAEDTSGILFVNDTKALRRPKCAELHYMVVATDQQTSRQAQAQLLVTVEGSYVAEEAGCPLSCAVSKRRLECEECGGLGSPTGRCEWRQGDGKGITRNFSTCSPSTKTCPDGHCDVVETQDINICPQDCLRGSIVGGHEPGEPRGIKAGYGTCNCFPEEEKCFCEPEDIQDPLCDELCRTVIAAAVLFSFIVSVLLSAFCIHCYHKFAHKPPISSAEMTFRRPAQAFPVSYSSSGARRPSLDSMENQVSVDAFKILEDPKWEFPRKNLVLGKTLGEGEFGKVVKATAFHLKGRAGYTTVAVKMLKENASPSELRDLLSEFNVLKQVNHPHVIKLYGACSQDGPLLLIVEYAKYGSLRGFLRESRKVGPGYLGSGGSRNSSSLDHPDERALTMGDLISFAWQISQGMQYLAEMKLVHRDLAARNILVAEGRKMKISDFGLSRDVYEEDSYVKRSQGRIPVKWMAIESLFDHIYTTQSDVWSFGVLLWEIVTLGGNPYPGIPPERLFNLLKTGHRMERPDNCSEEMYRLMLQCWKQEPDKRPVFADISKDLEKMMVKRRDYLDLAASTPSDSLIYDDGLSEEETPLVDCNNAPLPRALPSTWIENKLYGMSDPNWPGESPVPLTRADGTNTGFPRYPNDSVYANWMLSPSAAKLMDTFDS
C-Abl, sequence (P00519 whole entry): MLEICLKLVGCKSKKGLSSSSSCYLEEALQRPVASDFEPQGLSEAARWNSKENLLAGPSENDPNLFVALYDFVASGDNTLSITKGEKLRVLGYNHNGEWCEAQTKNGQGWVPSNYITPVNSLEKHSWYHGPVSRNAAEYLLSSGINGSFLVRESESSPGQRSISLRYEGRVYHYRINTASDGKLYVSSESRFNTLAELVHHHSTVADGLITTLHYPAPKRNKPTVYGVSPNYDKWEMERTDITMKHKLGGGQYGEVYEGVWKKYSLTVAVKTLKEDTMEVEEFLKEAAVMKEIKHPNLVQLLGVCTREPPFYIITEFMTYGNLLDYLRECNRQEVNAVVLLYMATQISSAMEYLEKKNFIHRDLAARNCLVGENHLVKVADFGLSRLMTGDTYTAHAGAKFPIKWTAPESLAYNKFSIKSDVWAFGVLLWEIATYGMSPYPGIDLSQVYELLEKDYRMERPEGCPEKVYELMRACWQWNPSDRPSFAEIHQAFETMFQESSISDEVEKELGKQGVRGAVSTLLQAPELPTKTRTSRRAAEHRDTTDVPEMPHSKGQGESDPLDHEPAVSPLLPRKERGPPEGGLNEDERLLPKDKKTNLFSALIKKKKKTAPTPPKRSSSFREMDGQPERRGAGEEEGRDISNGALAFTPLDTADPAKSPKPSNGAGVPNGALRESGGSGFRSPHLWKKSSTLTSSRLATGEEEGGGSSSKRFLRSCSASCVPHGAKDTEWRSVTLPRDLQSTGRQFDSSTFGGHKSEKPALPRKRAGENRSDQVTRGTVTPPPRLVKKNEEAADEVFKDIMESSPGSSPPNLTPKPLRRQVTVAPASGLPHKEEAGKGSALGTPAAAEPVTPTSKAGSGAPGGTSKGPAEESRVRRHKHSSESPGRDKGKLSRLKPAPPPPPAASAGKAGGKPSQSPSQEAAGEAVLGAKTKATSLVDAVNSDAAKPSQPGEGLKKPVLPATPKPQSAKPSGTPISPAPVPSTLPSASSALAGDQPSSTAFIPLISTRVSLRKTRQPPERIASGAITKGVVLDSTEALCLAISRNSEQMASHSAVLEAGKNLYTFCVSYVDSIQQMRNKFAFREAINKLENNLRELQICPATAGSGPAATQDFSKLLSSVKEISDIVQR

| IC50 (IGF-1R) [nM] | Compound | other results |
| --- | --- | --- |
| 105 to 141 | Nc1ncnc2c1c(-c1cccc(OC[C@@H]3CCCCO3)c1)cn2[C@H]1C[C@@H](CN2CCC2)C1 (single isomer, unassigned) [Example 3] | Relative peak area after incubation, Parent [1]: 81.7%; Relative peak area after incubation, Phenol metabolite X [1]: not detected; formation of the phenolic metabolite X [2]: no evidence of formation; metabolic stability relative to ex.102 of WO02/092559 [2]: Greater metabolic stability; Relative peak area after incubation, Parent [2]: 75.8%; Relative peak area after incubation, Phenol metabolite X [2]: not detected |
| 51 to 99 | Nc1ncnc2c1c(-c1cccc(OC[C@H]3CCCCO3)c1)cn2[C@H]1C[C@@H](CN2CCC2)C1 (single isomer, unassigned) [Example 2] | Relative peak area after incubation, Parent [1]: 90.3%; Relative peak area after incubation, Phenol metabolite X [1]: not detected; formation of the phenolic metabolite X [2]: no evidence of formation; metabolic stability relative to ex.102 of WO02/092559 [2]: Greater metabolic stability; Relative peak area after incubation, Parent [2]: 69.3%; Relative peak area after incubation, Phenol metabolite X [2]: not detected |
| – | Nc1ncnc2c1c(-c1cccc(O)c1)cn2[C@H]1C[C@@H](CN2CCC2)C1 [Phenol metabolite X, cis-3-[4-amino-7-(3-azetidin-1-ylmethyl-cyclobutyl)-7H-pyrrolo[2,3-d]pyrimidin-5-yl]-phenol] | IC50 (InsR): 3800 nM; IC50 (C-Abl): 47 nM; IC50 (EphB4): 9 nM; IC50 (c-src): 4 nM; IC50 (RET): 8 nM |
| 60 | Nc1ncnc2c1c(-c1cccc(OCC34CCC(CC3)O4)c1)cn2C1CC(O)(CN2CCCC2CO)C1 (single isomer, unassigned) [Example 209] | – |
| 167 | CS(=O)(=O)NCC1CC(n2cc(-c3cccc(OCC45CCC(CC4)O5)c3)c3c(N)ncnc32)C1 (centres unmarked) [Example 167, N-(3-{4-amino-5-[3-(7-oxa-bicyclo[2.2.1]hept-1-ylmethoxy)-phenyl]-pyrrolo[2,3-d]pyrimidin-7-yl}-cyclobutylmethyl)-methanesulfonamide] | – |
| 485 | C[C@]1(O)C[C@@H](c2nc(-c3cccc(OCC45CCC(CC4)O5)c3)c3c(N)nccn32)C1 [Example 122] | – |
| 224 | Nc1ncnc2c1c(-c1cccc(OCC34CCC(CC3)O4)c1)cn2[C@H]1CC[C@@H](N2CCC(F)(F)CC2)CC1 [Example 116, 5-(3-(7-oxabicyclo[2.2.1]heptan-1-ylmethoxy)phenyl)-7-((1S,4S)-4-(4,4-difluoropiperidin-1-yl)cyclohexyl)-7H-pyrrolo[2,3-d]pyrimidin-4-amine] | – |
| 319 | Nc1ncnc2c1c(-c1cccc(OCC34CCC(CC3)O4)c1)cn2[C@@H]1CCN(C2CS(=O)(=O)C2)C1 [Example 225, 7-[(R)-1-(1,1-dioxo-thietan-3-yl)-pyrrolidin-3-yl]-5-[3-(7-oxa-bicyclo[2.2.1]hept-1-ylmethoxy)-phenyl]-7H-pyrrolo[2,3-d]pyrimidin-4-ylamine] | – |
| 408 | Nc1ncnc2c1c(-c1cccc(OCC3CCCCO3)c1)cn2[C@H]1C[C@@H](CN2CCC(F)(F)CC2)C1 (relative stereo) [Example 31, 7-[cis-3-(4,4-difluoro-piperidin-1-ylmethyl)-cyclobutyl]-5-[3-(tetrahydro-pyran-2-ylmethoxy)-phenyl]-7H-pyrrolo[2,3-d]pyrimidin-4-ylamine] | – |
| 559 | Nc1ncnc2c1c(-c1cccc(OCC3CCCCO3)c1)cn2[C@H]1C[C@@H](CN2CCCC2C(=O)O)C1 (relative stereo) [Example 92, 1-(cis-3-{4-amino-5-[3-(tetrahydro-pyran-2-ylmethoxy)-phenyl]-pyrrolo[2,3-d]pyrimidin-7-yl}-cyclobutylmethyl)-pyrrolidine-2-carboxylic acid] | – |
| 332 | Nc1ncnc2c1c(-c1cccc(OCC34CCC(CC3)O4)c1)cn2[C@@H]1CCN(C2CCS(=O)(=O)CC2)C1 [Example 215, 7-[(R)-1-(1,1-dioxo-hexahydro-thiopyran-4-yl)-pyrrolidin-3-yl]-5-[3-(7-oxa-bicyclo[2.2.1]hept-1-ylmethoxy)-phenyl]-7H-pyrrolo[2,3-d]pyrimidin-4-ylamine] | – |
| 36 | CN1CCN([C@H]2CC[C@@H](n3cc(-c4cccc(OC[C@@H]5CCC(C)(C)O5)c4)c4c(N)ncnc43)CC2)CC1 [Example 119, 5-(3-(((S)-5,5-dimethyltetrahydrofuran-2-yl)methoxy)phenyl)-7-((1S,4S)-4-(4-methylpiperazin-1-yl)cyclohexyl)-7H-pyrrolo[2,3-d]pyrimidin-4-amine] | – |
| 372 | Nc1ncnc2c1c(-c1cccc(OCC3CCCCO3)c1)cn2[C@H]1C[C@H](CN2CC(O)C2)C1 (relative stereo) [Example 36, 1-(trans-3-{4-amino-5-[3-(tetrahydro-pyran-2-ylmethoxy)-phenyl]pyrrolo[2,3-d]pyrimidin-7-yl}-cyclobutylmethyl)-azetidin-3-ol] | – |
| 597 | Nc1ncnc2c1c(-c1cccc(OCC34CCC(CC3)O4)c1)cn2[C@H]1CC[C@@H](CN2CCNCC2)CC1 [Example 136, 5-(3-(7-oxabicyclo[2.2.1]heptan-1-ylmethoxy)phenyl)-7-((1S,4S)-4-(piperazin-1-ylmethyl)cyclohexyl)-7H-pyrrolo[2,3-d]pyrimidin-4-amine] | – |
| 309 | Nc1ncnc2c1c(-c1cccc(OC[C@@H]3CCCO3)c1)cn2[C@H]1C[C@@H](N2CC[S+]([O-])CC2)C1 [Example 234, 7-[cis-3-(1-oxo-thiomorpholin-4-yl)-cyclobutyl]-5-{3-[(S)-1-(tetrahydro-furan-2-yl)methoxy]-phenyl}-7H-pyrrolo[2,3-d]pyrimidin-4-ylamine] | – |
| 339 | CN1CCC(N2CCC(n3cc(-c4cccc(OCC5CCC(C)(C)O5)c4)c4c(N)ncnc43)CC2)CC1 (centres unmarked) [Example 60, 5-[3-(5,5-dimethyl-tetrahydro-furan-2-ylmethoxy)-phenyl]-7-(1′-methyl-[1,4′]bipiperidinyl-4-yl)-7H-pyrrolo[2,3-d]pyrimidin-4-ylamine] | – |
| 390 | Nc1ncnc2c1c(-c1cccc(OCC34CCC(CC3)O4)c1)cn2C1CC(O)(CN2CCCC2CO)C1 (single isomer, unassigned) [Example 202] | – |
| 335 | Nc1ncnc2c1c(-c1cccc(OCC34CCC(CC3)O4)c1)cn2C1CCC(c2cnco2)CC1 [Example 150, 5-(3-(7-oxabicyclo[2.2.1]heptan-1-ylmethoxy)phenyl)-7-((1S,4S)-4-(oxazol-5-yl)cyclohexyl)-7H-pyrrolo[2,3-d]pyrimidin-4-amine] | – |

| Compound | IC50 (IGF-1R) [nM] | other results |
| --- | --- | --- |
| NC(=O)[C@@H]1[C@H](O)CCN1C[C@H]1C[C@H](n2cc(-c3cccc(OCC4CCCO4)c3)c3c(N)ncnc32)C1 (relative stereo) [Example 91, (2S,3R)-1(trans-((1R,3S)-3-(4-amino-5-(3-(tetrahydrofuran-2-yl)methoxy)phenyl)-7H-pyrrolo[2,3-d]pyrimidin-7-yl)cyclobutyl)methyl-3-hydroxylpyrrolidine-2-carboxamide] | 108 | – |
